As a reminder, the pIC50 is the negative decadic logarithm of the IC50, by convention in mol/L. The term inhibition denotes how much of the control response was suppressed. The low end stands for a response near the control, the high end for a response far below the control. Broadly, the pEC50 is the negative decadic logarithm of the EC50, by convention in mol/L. High values mean a low EC50, low ones a high EC50. For orientation: viability means the share of living cells, or the viability signal relative to a control. For orientation: pKi means −log10 of the Ki, conventionally taken in molar units.

This note sets out measurements from ChEMBL document CHEMBL2203041, “Synthesis, biological assessment, and molecular modeling of racemic 7-aryl-9,10,11,12-tetrahydro-7H-benzo[7,8]chromeno[2,3-b]quinolin-8-amines as potential drugs for the treatment of Alzheimer's disease” (Eur J Med Chem, 2012).

For data set [1], the target named is Acetylcholinesterase (Homo sapiens, UniProt P22303).
Chain of Acetylcholinesterase (Homo sapiens, UniProt P22303) (P22303 whole entry): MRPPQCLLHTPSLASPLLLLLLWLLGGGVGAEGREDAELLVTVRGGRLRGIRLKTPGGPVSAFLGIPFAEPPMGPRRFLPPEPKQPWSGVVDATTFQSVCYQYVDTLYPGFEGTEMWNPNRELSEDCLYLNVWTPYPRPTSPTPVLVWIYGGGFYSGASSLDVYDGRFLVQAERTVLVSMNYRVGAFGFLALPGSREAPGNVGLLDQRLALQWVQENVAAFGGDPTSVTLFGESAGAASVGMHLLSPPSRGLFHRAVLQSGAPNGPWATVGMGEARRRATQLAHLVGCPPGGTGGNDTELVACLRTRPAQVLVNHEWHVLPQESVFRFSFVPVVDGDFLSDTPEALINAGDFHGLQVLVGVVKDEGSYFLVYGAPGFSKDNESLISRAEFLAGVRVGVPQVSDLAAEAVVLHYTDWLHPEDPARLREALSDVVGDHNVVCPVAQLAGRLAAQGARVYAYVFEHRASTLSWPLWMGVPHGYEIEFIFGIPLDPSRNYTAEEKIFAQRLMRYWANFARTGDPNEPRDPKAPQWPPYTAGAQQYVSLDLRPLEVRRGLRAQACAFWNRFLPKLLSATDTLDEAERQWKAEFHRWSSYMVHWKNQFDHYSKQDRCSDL
Description: Inhibition of human AChE using acetylthiocholine iodide as substrate incubated for 10 mins prior to substrate addition measured after 15 mins by Ellman's method
Another data set addresses Cholinesterase (Homo sapiens, UniProt P06276).
A short description of data set [2]: Inhibition of voltage-dependent Ca2+ channel. Particulars: concentration not given here; call rule not given here.
The target in data set [3] is T1, Acetylcholinesterase (Electrophorus electricus, UniProt O42275). In words: Inhibition of electric eel AChE.
T1 sequence (O42275 whole entry): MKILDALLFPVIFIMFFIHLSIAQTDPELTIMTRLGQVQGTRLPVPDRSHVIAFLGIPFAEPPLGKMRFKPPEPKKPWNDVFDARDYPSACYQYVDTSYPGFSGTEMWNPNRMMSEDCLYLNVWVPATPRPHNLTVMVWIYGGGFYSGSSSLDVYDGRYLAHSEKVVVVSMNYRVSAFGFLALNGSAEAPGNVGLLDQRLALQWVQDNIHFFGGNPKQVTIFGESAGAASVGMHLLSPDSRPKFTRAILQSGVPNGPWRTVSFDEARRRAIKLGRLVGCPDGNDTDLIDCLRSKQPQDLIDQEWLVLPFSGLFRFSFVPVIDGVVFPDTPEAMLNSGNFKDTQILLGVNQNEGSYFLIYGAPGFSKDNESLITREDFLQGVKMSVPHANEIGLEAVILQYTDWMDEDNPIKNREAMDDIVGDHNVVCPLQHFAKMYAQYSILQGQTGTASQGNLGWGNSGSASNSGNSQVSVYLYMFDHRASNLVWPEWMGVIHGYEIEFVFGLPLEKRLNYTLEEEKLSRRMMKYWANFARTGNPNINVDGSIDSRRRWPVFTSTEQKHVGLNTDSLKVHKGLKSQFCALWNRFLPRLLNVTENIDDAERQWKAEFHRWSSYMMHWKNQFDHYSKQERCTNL
A short description of data set [4]: Neurotoxicity in Wistar rat primary cortical neurons assessed as decrease in cell viability at 50 uM by XTT assay. In kind it is toxicity, cell-based. To be noted: cerebral cortex neuron. (In general: Tetrazolium assays rely on reduction of a dye to a coloured formazan, in cell work by metabolically active cells.)
Data set [5] in a line: Permeability of the compound by PAMPA. Particulars: read-out: permeability. In kind it is ADME. On the technique in general: PAMPA measures passive passage across an artificial lipid membrane.
A further data set has as its system HepG2. In words: Cytotoxicity against human HepG2 cells assessed as cell viability after 24 hrs by MTT assay relative to control. Format: cell-based. Particulars: hepg2, 24 h.
A short description of the next data set: cells. Particulars: Rattus norvegicus, Wistar, Cerebral cortex neuron, 24 h.
Data set [6] is described as follows: in vitro. To be noted: human, HepG2 cells.
Description: Cytotoxicity against human HepG2 cells assessed as cell viability at 1 uM after 24 hrs by MTT assay relative to control
A short description of data set [7]: in vitro. To be noted: human, HepG2 cells. This is another data set of the same source.
Description: Cytotoxicity against human HepG2 cells assessed as cell viability at 3 uM after 24 hrs by MTT assay relative to control
A short description of data set [8]: in vitro. Particulars: human, HepG2 cells. This is another data set of the same source.
Description: Cytotoxicity against human HepG2 cells assessed as cell viability at 10 uM after 24 hrs by MTT assay relative to control
A short description of data set [9]: in vitro. Particulars: human, HepG2 cells. The source holds these as a separate data set.
Description: Cytotoxicity against human HepG2 cells assessed as cell viability at 30 uM after 24 hrs by MTT assay relative to control
The nature of data set [10]: in vitro. To be noted: human, HepG2 cells. The source holds these as a separate data set.
Description: Cytotoxicity against human HepG2 cells assessed as cell viability at 100 uM after 24 hrs by MTT assay relative to control
Data set [11] in a line: in vitro. Particulars: human, HepG2 cells. The source holds these as a separate data set.
Description: Cytotoxicity against human HepG2 cells assessed as cell viability at 300 uM after 24 hrs by MTT assay relative to control
Data set [12] in a line: Neurotoxicity in Wistar rat primary cortical neurons assessed as decrease in cell viability at 100 uM by XTT assay. Format: toxicity, cell-based. To be noted: cerebral cortex neuron.
In data set [13] the target is T1, Acetylcholinesterase. The experiment in a line: Mixed-type inhibition of electric eel AChE using acetylthiocholine iodide as substrate by Ellman's method. (In general: In Ellman's method for cholinesterases, released thiocholine reacts with DTNB.)
The nature of data set [14]: Antioxidant activity assessed as AAPH-induced radical scavenging activity incubated for 15 mins prior to AAPH induction measured every 1 min for 80 mins by ORAC-FL assay relative to trolox. In kind it is functional.

The structures appear in SMILES notation. pEC50, pIC50, pKi: −log10 of the molar value. A value given as a limit tells only on which side of the number the result lay.

Chain of Cholinesterase (P06276 whole entry): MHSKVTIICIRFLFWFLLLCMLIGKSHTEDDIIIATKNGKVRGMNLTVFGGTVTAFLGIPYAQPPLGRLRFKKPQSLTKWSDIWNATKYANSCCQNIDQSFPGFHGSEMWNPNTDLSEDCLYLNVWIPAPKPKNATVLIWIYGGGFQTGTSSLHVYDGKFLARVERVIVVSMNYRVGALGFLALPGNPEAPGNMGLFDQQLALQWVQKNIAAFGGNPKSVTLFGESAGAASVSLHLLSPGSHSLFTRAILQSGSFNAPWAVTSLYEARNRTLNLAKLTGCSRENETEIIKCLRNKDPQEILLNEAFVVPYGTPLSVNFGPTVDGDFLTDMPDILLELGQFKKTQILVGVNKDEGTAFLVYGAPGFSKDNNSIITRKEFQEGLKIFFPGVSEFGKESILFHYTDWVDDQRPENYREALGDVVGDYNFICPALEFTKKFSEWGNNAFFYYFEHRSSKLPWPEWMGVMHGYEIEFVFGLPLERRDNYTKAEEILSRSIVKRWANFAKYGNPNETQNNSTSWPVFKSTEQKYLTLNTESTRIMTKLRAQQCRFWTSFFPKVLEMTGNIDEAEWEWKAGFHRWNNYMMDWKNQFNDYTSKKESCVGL
Description for cells: Neuroprotective activity in 20 uM rotenone and 10 uM oligomycin-treated Wistar rat primary cortical neurons assessed as increase in cell viability after 24 hrs by XTT assay

Turning to `Nc1c2c(nc3c1C(c1c(Cl)cccc1Cl)c1ccc4ccccc4c1O3)CCCC2` (racemic), the pIC50 at Acetylcholinesterase [1] is 5.40; at Cholinesterase, less than 5.00.

In turn, `CCOC(=O)c1c(C)nc2nc3c(c(N)c2c1-c1ccc(F)cc1)CCCC3` yielded an inhibition in data set [2] of 38%. Also, the pIC50 on Acetylcholinesterase [3] was 6.15.

In the case of `COc1cc(C2c3ccc4ccccc4c3Oc3nc4c(c(N)c32)CCCC4)cc(OC)c1OC` (racemic), the Activity result in data set [4] is reported as “Non-toxic”; in the data set with HepG2, “Dose-dependent effect”. Moreover, in data set [5], the Papp stood at 23.4 ×10⁻⁶ cm/s. Besides, the pIC50 on Acetylcholinesterase [1] is 5.45; on Cholinesterase it was less than 5.00. Besides, the pEC50 in the data set “cells” was 5.36. The compound also yielded a viability at 24 h, 1 µM in the data set “in vitro [6]” of 96.5%. Further, the viability at 24 h, 3 µM in “in vitro [7]” was 95.6%. In addition, the viability at 24 h, 10 µM in the data set “in vitro [8]” came to 96.4%. Further, the viability at 24 h, 30 µM in “in vitro [9]” is 96.6%. The compound also displayed a viability at 24 h, 100 µM in the data set “in vitro [10]” of 94.5%. This compound also gave a viability at 24 h, 300 µM in “in vitro [11]” of 93.5%.

For the compound `Nc1c2c(nc3c1C(c1ccc(O)cc1)c1ccc4ccccc4c1O3)CCCC2` (racemic), the pIC50 against Acetylcholinesterase [1] is 5.11; against Cholinesterase, less than 5.00.

In the case of `COc1ccc(C2c3ccc4ccccc4c3Oc3nc4c(c(N)c32)CCCC4)c(OC)c1` (racemic), the Activity entry in [4] is listed as “Non-toxic”; in [12], 40%; in the data set with HepG2, “Dose-dependent effect”. For the same compound, the Papp in [5] turned out to be 14.6 ×10⁻⁶ cm/s. In addition, the pIC50 on Acetylcholinesterase [1] is 6.43; at Cholinesterase, less than 5.00. The pEC50 in the data set “cells” was 4.96. Further, in “in vitro [6]”, the viability at 24 h, 1 µM was 97.8%. In “in vitro [7]”, this compound yielded a viability at 24 h, 3 µM of 84.2%. The same compound returned a viability at 24 h, 10 µM in the data set “in vitro [8]” of 85.3%. For the same compound, in “in vitro [9]”, the viability at 24 h, 30 µM is 76.9%. The same compound came in with a viability at 24 h, 100 µM in the data set “in vitro [10]” of 78.9%. The compound further yielded a viability at 24 h, 300 µM in the data set “in vitro [11]” of 74.8%.

As to `Nc1c2c(nc3c1C(c1ccc(Cl)c(Cl)c1)c1ccc4ccccc4c1O3)CCCC2` (racemic), the Activity result in [4] is reported as “Non-toxic”; in data set [12], 40%; with HepG2, “Dose-dependent effect”. Besides, the Papp in data set [5] is 12.3 ×10⁻⁶ cm/s. For the same compound, the pIC50 against Acetylcholinesterase [1] was 5.29; on Cholinesterase, less than 5.00. The compound also had a pEC50 in “cells” of 5.48. The compound also returned a viability at 24 h, 1 µM in “in vitro [6]” of 97.5%. Moreover, the viability at 24 h, 3 µM in the data set “in vitro [7]” came out at 86.2%. In “in vitro [8]”, this compound returned a viability at 24 h, 10 µM of 79.9%. In the data set “in vitro [9]”, this compound registered a viability at 24 h, 30 µM of 68.1%. In the data set “in vitro [10]”, this compound displayed a viability at 24 h, 100 µM of 63.4%. For the same compound, the viability at 24 h, 300 µM in the data set “in vitro [11]” was determined as 61%.

`COc1cc(C2c3ccc4ccccc4c3Oc3nc4c(c(N)c32)CCCC4)ccc1O` (racemic) had a pKi on Acetylcholinesterase [13] of 7.09. For the same compound, in data set [14], the fold change (FC) was found to be 1.5. Moreover, the pIC50 is 6.48 against Acetylcholinesterase [1] and less than 5.00 against Cholinesterase.

In the case of `Nc1c2c(nc3c1C(c1ccc([N+](=O)[O-])cc1)c1ccc4ccccc4c1O3)CCCC2` (racemic), the Activity entry is reported as “Non-toxic” in data set [4], 40% in data set [12] and “Dose-dependent effect” in the data set on HepG2. For the same compound, the Papp in data set [5] was 16.1 ×10⁻⁶ cm/s. Moreover, the results for the pIC50 on Acetylcholinesterase [1] and against Cholinesterase were 5.24 and less than 5.00, respectively. The pEC50 in the data set “cells” was 5.63. In the data set “in vitro [6]”, this compound gave a viability at 24 h, 1 µM of 95%. In “in vitro [7]”, this compound displayed a viability at 24 h, 3 µM of 93%. Moreover, the viability at 24 h, 10 µM in “in vitro [8]” turned out to be 92.6%. In the data set “in vitro [9]”, this compound yielded a viability at 24 h, 30 µM of 90.3%. In “in vitro [10]”, this compound registered a viability at 24 h, 100 µM of 85%. For the same compound, in the data set “in vitro [11]”, the viability at 24 h, 300 µM came out at 72.1%.

Take `Nc1c2c(nc3c1C(c1ccccc1)c1ccc4ccccc4c1O3)CCCC2` (racemic): the negative-log IC50 (pIC50) is 6.52 against Acetylcholinesterase [1] and less than 5.00 on Cholinesterase.

`CCOC(=O)C1=C(C)Oc2nc3c(c(N)c2C1c1ccc(OC)cc1)CCCC3` (stereo not drawn) yielded an inhibition in [2] of 50%.

`COc1ccccc1C1c2ccc3ccccc3c2Oc2nc3c(c(N)c21)CCCC3` (racemic): the pIC50 at Acetylcholinesterase [1] is 5.34; on Cholinesterase, 5.03.

`Cc1ccc(C2c3ccc4ccccc4c3Oc3nc4c(c(N)c32)CCCC4)cc1` (racemic): the negative-log IC50 (pIC50) is 6.40 on Acetylcholinesterase [1] and less than 5.00 at Cholinesterase.
